In general, IC50 refers to the concentration needed to halve the response being measured. Low values mean greater potency in that assay, high ones weaker potency in that assay.

The results in this text go back to patent US9133180B2, “Aurora and FLT3 kinases modulators” (SAREUM LIMITED, priority 2012, dated 2015).

For one assay, the system named is RPMI8226. Nature of the assay: CellTiter-Blue assay, haematological cell line. In kind it is cell-based. The note with it: Homo sapiens, RPMI-8226, 96 h; RPMI8226 (MM), four days treatment. Background: The colour change of resazurin is a common sign of viable cells or microbes.
For another assay, the target named is Aurora B kinase (Homo sapiens (Human), UniProt Q96GD4). The assay is described as follows: Aurora B kinase 33P-ATP filter assay (Reaction Biology Corp.). In kind it is biochemical. The protocol: The ability of the compounds of the invention to inhibit FLT3 kinase and Aurora A and Aurora B kinases was determined using the assays described below.
Kinase assays were performed at Reaction Biology Corp., Malvern, Pa., USA, using the following general procedure:
1) Prepare indicated substrate in freshly prepared Base Reaction Buffer (20 mM Hepes pH 7.5, 10 mM MgCl2, 1 mM EGTA, 0.02% Brij35, 0.02 mg/ml BSA, 0.1 mM Na3VO4, 2 mM DTT, 1% DMSO).
2) Deliver cofactors (1.5 mM CaCl2, 16 ug/mL Calmodulin, 2 mM MnCl2) to the substrate solution above.
3) Deliver indicated kinase into the substrate solution and gently mix
4) Deliver varying concentrations of test compound in DMSO into the kinase reaction mixture.
5) Deliver ^33P-ATP (specific activity 0.01 µCi/µL final) into the reaction mixture to initiate the reaction.
6) Incubate kinase reaction for 120 min at room temperature.
7) Reactions are spotted onto P81 ion exchange filter paper (Whatman #3698-915)
8) Unbound phosphate is removed by washing filters extensively in 0.75% phosphoric acid.
9) ^33P signal was determined using Typhoon phosphorimagers (GE Healthcare).
Substrates: Kemptide=[H-LRRASLG] Abltide=[[…]]

Sequence of Aurora B kinase (Q96GD4 whole entry): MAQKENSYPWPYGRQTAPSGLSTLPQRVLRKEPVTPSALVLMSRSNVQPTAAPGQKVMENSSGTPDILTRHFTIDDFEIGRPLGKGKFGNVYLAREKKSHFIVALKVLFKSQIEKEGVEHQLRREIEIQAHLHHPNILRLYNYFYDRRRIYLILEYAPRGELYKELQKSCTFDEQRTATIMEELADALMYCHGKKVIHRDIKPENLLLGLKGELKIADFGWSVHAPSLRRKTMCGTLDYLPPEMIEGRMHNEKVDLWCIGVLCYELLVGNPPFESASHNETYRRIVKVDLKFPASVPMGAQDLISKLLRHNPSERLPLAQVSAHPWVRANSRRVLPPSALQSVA
Method for RPMI8226: Cells were harvested from exponential phase cultures, counted and plated in 96 well flat-bottom microtiter plates at a cell density of 20,000-90,000 cells/well. After a 24 h recovery period to allow the cells to resume exponential growth, 10 μl of culture medium (four control wells/plate) or of culture medium with test compound were added. The compounds were applied in duplicates at ten concentrations and treatment continued for four days. After treatment of cells, 10 μl/well CellTiter-Blue® reagent was added. Following an incubation period of up to four hours, fluorescence (FU) was measured by using the EnVision Xcite multilabel reader (excitation λ=531 nm, emission λ=615 nm). The compounds were tested in two to four independent experiments for each cell line.

With `Cc1ccc2[nH]ccc2c1-c1nc(C(N)=O)c(-c2ccc(N3CCNC(C)(C)C3)cc2)o1` [Example 2, 2-(5-Methyl-1H-Indol-4-yl)-5-[4-(3,3-dimethyl-piperazin-1-yl)-phenyl]-oxazole-4-carboxylic acid amide], the IC50 in the assay with RPMI8226 was found to be 2140 nM; at Aurora B kinase it was 5.9 nM.
